In PubChem BioAssay (NCI):
Values joined by “and” are separate entries in the source; they are usually repeats but may differ in a detail not shown here. Equal values may be shown once.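 All cell lines were grown in 96-well plates and treated with compound for 48 hours. Here, GI50 denotes the concentration required for 50% inhibition of growth. TGI: total growth inhibition.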

How the values were obtained:
Assay in all cases: DTP human tumour cell line panel, 48 h
SK-OV-3 ovarian = tested on: SK-OV-3 ovarian
OVCAR-5 ovarian = tested on: OVCAR-5 ovarian
SF-295 CNS = tested on: SF-295 CNS
CAKI-1 renal = tested on: CAKI-1 renal
SNB-19 CNS = tested on: SNB-19 CNS
PC-3 prostate = tested on: PC-3 prostate
HL-60(TB) leukemia = tested on: HL-60(TB) leukemia
MDA-MB-435 = tested on: MDA-MB-435
OVCAR-4 ovarian = tested on: OVCAR-4 ovarian
RPMI-8226 leukemia = tested on: RPMI-8226 leukemia

Compound	GI50 (SK-OV-3 ovarian)	GI50 (OVCAR-5 ovarian)	GI50 (SF-295 CNS)	GI50 (CAKI-1 renal)	TGI (CAKI-1 renal)	GI50 (SNB-19 CNS)	TGI (SNB-19 CNS)	GI50 (PC-3 prostate)	GI50 (HL-60(TB) leukemia)	TGI (HL-60(TB) leukemia)	GI50 (MDA-MB-435)	GI50 (OVCAR-4 ovarian)	TGI (OVCAR-4 ovarian)	GI50 (RPMI-8226 leukemia)	TGI (RPMI-8226 leukemia)	TGI (SK-OV-3 ovarian) [µM]	TGI (OVCAR-5 ovarian) [µM]	TGI (SF-295 CNS) [µM]	TGI (PC-3 prostate) [µM]	TGI (MDA-MB-435) [µM]
COC(C(=O)C(O)C(C)O)C1Cc2cc3cc(OC4CC(OC5CC(O)C(O)C(C)O5)C(O)C(C)O4)c(C)c(O)c3c(O)c2C(=O)C1OC1CC(OC2CC(O)C(OC3CC(C)(O)C(O)C(C)O3)C(C)O2)C(O)C(C)O1 (configuration not stated)	0.0163 µg/mL and 0.0045 µg/mL	0.013 µg/mL and 0.0036 µg/mL	0.0185 µg/mL and 0.000389 µg/mL	0.0112 µg/mL and 0.000362 µg/mL	0.0484 µg/mL and 0.0414 µg/mL	0.0402 µg/mL	> 150 µg/mL	0.0194 µg/mL and 0.0396 µg/mL	0.00227 µg/mL	0.188 µg/mL	0.0121 µg/mL and 0.339 µg/mL	0.0242 µg/mL and 0.00192 µg/mL	0.269 µg/mL and 0.143 µg/mL	0.0112 µg/mL and 0.00164 µg/mL	0.507 µg/mL and 0.191 µg/mL					
N#Cc1ccsc1NC(=O)COC(=O)c1cccc(S(=O)(=O)N2CCc3ccccc32)c1	> 100 µM	35.2 µM	33.4 µM	42.4 µM	> 100 µM	55.8 µM	> 100 µM	27.1 µM	37.9 µM	> 100 µM	41.4 µM	64.7 µM	> 100 µM	17.4 µM	> 100 µM	> 100	> 100	> 100	> 100	> 100
Cn1c2ccccc2c(=O)c2c(O)cc3c(c21)CC(C1(C)CO1)O3 (configuration not stated)					17.9 µM		26.9 µM			2.32 µM			31.2 µM		22.6 µM	24.1	23.4	39.2	14.2	3.07
CC(C)=CCC1=C(OCC(=O)O)C(=O)c2ccccc2C1=O					> 100 µM		92.7 µM			36.1 µM			99.1 µM		> 100 µM	> 100		41.4	> 100	29
CCN(Cc1ccccc1Cl)c1ccc(CO)c(Cl)c1	8.82 µM	0.206 µM	0.775 µM	5.82 µM	21 µM	13.2 µM	26.3 µM	12.5 µM	13.9 µM	33.8 µM	9.19 µM	0.368 µM	9.36 µM	1.91 µM	19 µM	21.2	0.789	7.45	25.8	23.9
Clc1cc2c(nn1)Nc1ccccc1S2	> 100 µM	> 100 µM	> 100 µM	> 100 µM	> 100 µM	> 100 µM	> 100 µM	> 100 µM	> 100 µM	> 100 µM	> 100 µM	> 100 µM	> 100 µM	> 100 µM	> 100 µM	> 100	> 100	> 100	> 100	> 100
O=C1C(=O)c2ccccc2C(O)=C1CCCc1ccc(C2CCCC2)cc1	12.5 µM	11 µM	3.4 µM	3.15 µM	11.8 µM			3.3 µM	2.9 µM	6.92 µM	5.1 µM	5.92 µM	39.7 µM	2.66 µM	6.94 µM	56.9	23.6	11	19.7	38.8
